Reference: patent publication US11661400B2, “NADPH oxidase inhibitors, pharmaceutical composition comprising the same, and application thereof” (TAIWANJ PHARMACEUTICALS CO., LTD., priority 2018, dated 2023)

Tests used:
NOX1 = molecular target: T1, NOX1 (Homo sapiens, UniProt Q9Y5S8); experiment: NOX1 HT29 cell-based assay (luminol/HRP luminescence); conditions: HT29 cells, DMSO = 0%, GKT137831 = 100%; for inhibition at 1 µM / inhibition at 0.1 µM: HT-29
T1 construct: endogenous in cells; host or cells: HT29
T1 sequence (Q9Y5S8 1-564): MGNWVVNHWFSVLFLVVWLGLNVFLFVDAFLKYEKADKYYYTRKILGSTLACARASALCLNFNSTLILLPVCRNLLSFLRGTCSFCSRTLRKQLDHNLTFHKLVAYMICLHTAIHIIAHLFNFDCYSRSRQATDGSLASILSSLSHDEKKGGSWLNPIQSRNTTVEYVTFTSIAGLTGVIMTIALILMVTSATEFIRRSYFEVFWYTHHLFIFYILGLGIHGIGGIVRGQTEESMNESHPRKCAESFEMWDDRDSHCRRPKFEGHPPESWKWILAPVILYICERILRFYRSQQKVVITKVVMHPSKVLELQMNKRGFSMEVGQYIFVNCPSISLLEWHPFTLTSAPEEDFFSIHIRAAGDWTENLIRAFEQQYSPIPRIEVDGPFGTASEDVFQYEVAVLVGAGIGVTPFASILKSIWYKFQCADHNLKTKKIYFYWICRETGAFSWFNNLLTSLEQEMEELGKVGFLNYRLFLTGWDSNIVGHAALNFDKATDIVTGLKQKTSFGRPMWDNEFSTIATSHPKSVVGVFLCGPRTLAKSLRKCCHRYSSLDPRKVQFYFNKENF
T1 sequence (P13498 2-195 partner limits assumed): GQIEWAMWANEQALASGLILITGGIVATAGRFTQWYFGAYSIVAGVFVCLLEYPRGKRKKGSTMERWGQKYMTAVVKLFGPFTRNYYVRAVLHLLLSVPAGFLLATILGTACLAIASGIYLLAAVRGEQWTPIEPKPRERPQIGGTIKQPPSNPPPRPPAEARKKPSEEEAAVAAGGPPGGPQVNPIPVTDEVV
Outline: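 HT29 cells (1-2×10^5 per well) pretreated 30-60 min at 37 °C with compound at 100 nM and 1000 nM final, in duplicate, 0.1% DMSO. ROS read as luminol (100 μM)/HRP (0.4 U) luminescence. Activity normalised to DMSO (0%) and GKT137831 (100%).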

NOX2 = molecular target: T2, NOX2 (Homo sapiens, UniProt P04839); experiment: NOX2 HL60 cell-based assay (PMA oxidative burst, L012 chemiluminescence); conditions: DMSO-differentiated HL-60 cells, PMA-stimulated; for inhibition at 1 µM: HL-60, 1000 nM; for inhibition at 0.1 µM: HL-60, 100 nM
T2 construct: HL-60 cells, rich in NOX2 expression; endogenous in cells; host or cells: DMSO-differentiated HL-60
T2 sequence (P04839 2-570 limits assumed): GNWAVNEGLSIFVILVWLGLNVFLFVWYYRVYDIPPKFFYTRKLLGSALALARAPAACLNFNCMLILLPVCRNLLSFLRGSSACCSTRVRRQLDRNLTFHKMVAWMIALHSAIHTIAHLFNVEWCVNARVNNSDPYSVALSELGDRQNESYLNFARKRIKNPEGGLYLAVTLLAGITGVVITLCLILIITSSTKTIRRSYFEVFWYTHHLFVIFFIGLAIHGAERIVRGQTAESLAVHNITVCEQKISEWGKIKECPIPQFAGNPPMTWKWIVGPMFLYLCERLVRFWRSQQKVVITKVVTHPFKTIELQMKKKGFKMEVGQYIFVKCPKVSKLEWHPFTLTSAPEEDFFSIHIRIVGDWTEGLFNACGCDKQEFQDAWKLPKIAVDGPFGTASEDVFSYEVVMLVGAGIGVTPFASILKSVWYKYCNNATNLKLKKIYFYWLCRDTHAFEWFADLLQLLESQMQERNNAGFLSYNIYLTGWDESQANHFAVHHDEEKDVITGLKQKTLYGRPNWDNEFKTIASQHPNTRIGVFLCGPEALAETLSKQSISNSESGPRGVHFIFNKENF
T2 sequence (P13498 2-195 partner limits assumed): T1 sequence (P13498 2-195 partner limits assumed)
Outline: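 DMSO-differentiated HL-60 cells (2.5×10^5/well) with 100 μM L012 preincubated with compound 30-60 min at 37 °C in the dark. Oxidative burst triggered by 10 ng/mL PMA; superoxide chemiluminescence read every 5 min for 60 min.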

NOX4 = molecular target: T3, NOX4 (Homo sapiens, UniProt Q9NPH5); experiment: NOX4 HEK293 overexpression cell-based assay (Amplex Red H2O2); conditions: HEK293 cells stably overexpressing NOX4, DMSO = 0, GKT137831 = 100; for inhibition at 0.1 µM: HEK293, 100 nM; for inhibition at 1 µM: HEK293, 1000 nM
T3 construct: expressed in transfected cells
T3 sequence (Q9NPH5 1-578): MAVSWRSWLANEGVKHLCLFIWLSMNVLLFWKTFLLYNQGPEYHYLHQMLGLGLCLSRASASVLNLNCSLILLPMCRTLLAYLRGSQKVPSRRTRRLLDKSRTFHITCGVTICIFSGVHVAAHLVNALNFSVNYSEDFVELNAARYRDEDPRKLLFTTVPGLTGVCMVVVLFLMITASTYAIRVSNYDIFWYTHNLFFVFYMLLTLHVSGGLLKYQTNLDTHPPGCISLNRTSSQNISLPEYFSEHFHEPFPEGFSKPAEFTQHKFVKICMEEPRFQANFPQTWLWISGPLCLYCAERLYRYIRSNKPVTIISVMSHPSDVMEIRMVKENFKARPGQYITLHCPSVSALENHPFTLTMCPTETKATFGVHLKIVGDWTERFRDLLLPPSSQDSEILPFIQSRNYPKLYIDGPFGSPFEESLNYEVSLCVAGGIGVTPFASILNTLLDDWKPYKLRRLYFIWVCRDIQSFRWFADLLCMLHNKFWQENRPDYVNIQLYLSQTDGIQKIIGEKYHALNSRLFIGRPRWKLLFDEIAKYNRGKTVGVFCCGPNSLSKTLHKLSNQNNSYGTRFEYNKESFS
T3 sequence (P13498 2-195 partner limits assumed): T1 sequence (P13498 2-195 partner limits assumed)
Outline: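 HEK293 cells stably overexpressing NOX4 (3×10^4) preincubated 30 min at 37° C with compound in KRPG buffer, then mixed with Amplex Red reagent solution (50 μM Amplex Red, 0.1 units/mL HRP) for 90 min at 37° C in the dark. Supernatant fluorescence read at 530/590 nm; DMSO set to 0 and GKT137831 to 100.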

Compound	% Inhibition NOX1 (NOX1; 100 nM)	inhibition at 1 µM (NOX1; 1000 nM) [%]	% Inhibition NOX2 (NOX2; 100 nM)	inhibition at 1 µM (NOX2) [%]	inhibition at 0.1 µM (NOX4) [%]	inhibition at 1 µM (NOX4) [%]	inhibition at 0.1 µM (NOX1; 100 nM) [%]	inhibition at 0.1 µM (NOX2) [%]	% Inhibition NOX4 (NOX4; 100 nM)	% Inhibition NOX2 (NOX2; 100 nM, 0.1 µM)	% Inhibition NOX2 (NOX2; 1000 nM, 1 µM)	% Inhibition NOX1 (NOX1; 1000 nM)	% Inhibition NOX2 (NOX2; 1000 nM)	% Inhibition NOX4 (NOX4; 100 nM, 0.1 µM)	% Inhibition NOX4 (NOX4; 1000 nM)
Br.O=c1c(O)c(-c2ccc(O)cc2)[nH]c2cc(O)c(O)cc12 [Compound 3, 3,6,7-trihydroxy-2-(4-hydroxyphenyl) quinolin-4(1H)-one hydrobromide]	C (the percent of inhibition of NOX by the compounds ranges from 2000 to 49%)	≥ 80	C (the percent of inhibition of NOX by the compounds ranges from 2000 to 49%)	≥ 80	≤ 19	50 to 79	–	–	–	–	–	–	–	–	–
COc1cc2[nH]c(-c3ccc(C)cc3)c(O)c(=O)c2cc1OC [Compound 6]	–	≥ 80	–	≤ 19	–	50 to 79	≥ 80	≤ 19	C (the percent of inhibition of NOX by the compounds ranges from 2000 to 49%)	–	–	–	–	–	–
COc1cc2[nH]c(-c3ccccc3C)c(O)c(=O)c2cc1OC [Compound 16]	–	≥ 80	C (the percent of inhibition of NOX by the compounds ranges from 2000 to 49%)	≥ 80	50 to 79	50 to 79	≥ 80	–	–	–	–	–	–	–	–
COc1ccc2[nH]c(C(=O)c3ccccc3OC)c(O)c(=O)c2c1 [Compound 34, 3-hydroxy-6-methoxy-2-(2-methoxybenzoyl) quinolin-4(1H)-one]	–	≤ 19	–	≤ 19	≤ 19	≤ 19	≤ 19	≤ 19	–	–	–	–	–	–	–
COc1cc2[nH]c(-c3ccccc3Cl)c(N)c(=O)c2cc1OC [Compound 36, 3-amino-2-(2-chlorophenyl)-6,7-dimethoxyquinolin-4(1H)-one]	C (the percent of inhibition of NOX by the compounds ranges from 2000 to 49%)	≥ 80	C (the percent of inhibition of NOX by the compounds ranges from 2000 to 49%)	≥ 80	≤ 19	50 to 79	–	–	–	–	–	–	–	–	–
COc1cc2[nH]c(-c3ccc(Cl)cc3Cl)c(O)c(=O)c2cc1OC [Compound 24]	–	≥ 80	–	≥ 80	–	50 to 79	≥ 80	–	C (the percent of inhibition of NOX by the compounds ranges from 2000 to 49%)	C (the percent of inhibition of NOX by the compounds ranges from 2000 to 49%)	–	–	–	–	–
COc1cc2[nH]c(-c3ccccc3C(F)(F)F)c(O)c(=O)c2cc1OC [Compound 17]	–	≥ 80	–	–	50 to 79	50 to 79	≥ 80	–	–	C (the percent of inhibition of NOX by the compounds ranges from 2000 to 49%)	B (the percent of inhibition of NOX by the compounds ranges from 50% o to 79% o)	–	–	–	–
COc1ccc(-c2[nH]c3cc(C(=O)O)ccc3c(=O)c2O)cc1 [Compound 33, 3-hydroxy-2-(4-methoxyphenyl)-4-oxo-1,4-dihydroquinoline-7-carboxylic acid]	–	≥ 80	–	50 to 79	≤ 19	50 to 79	≥ 80	≤ 19	–	–	–	–	–	–	–
COc1cc2[nH]c(-c3ccc(Cl)cc3)c(O)c(=O)c2cc1OC [Compound 45]	–	–	D (the percent of inhibition of NOX by the compounds is smaller than or equals to 19% o)	–	–	–	≤ 19	–	–	–	–	A (the percent of inhibition of NOX by the compounds is larger than or equals to 80%)	D (the percent of inhibition of NOX by the compounds is smaller than or equals to 19% o)	C (the percent of inhibition of NOX by the compounds ranges from 2000 to 49%)	B (the percent of inhibition of NOX by the compounds ranges from 50% o to 79% o)
COc1cc2[nH]c(-c3ccccc3S(C)(=O)=O)c(O)c(=O)c2cc1OC [Compound 23]	–	≥ 80	–	≥ 80	50 to 79	50 to 79	≥ 80	50 to 79	–	–	–	–	–	–	–
